What was measured:
[1] = test system: expression of Bone Morphogenetic Protein 7 (BMP-7) in wild type 293S cells; assay: Kidney regeneration assay: BMP-7 expression (Northern blot) in wild type 293S cells; format: cell-based, human; conditions: parental 293S cell line, 10^−6M, RNA extracted at 8, 16 and 24 hours
Experimental: (§1) Methods: 293S and EP293S cells are grown in Dulbecco's Modified Egale medium (DMEM, Gibco, BRL; Gaithersburg, Md.). […] Cells are harvested and RNA is extracted at 8, 16 and 24 hours. Northern blot analysis of total RNA ([…]) is carried out by probing the blots with ^32P-labeled BMP-7 probe. The blots are normalized for RNA loading by hybridization with ^32P-labeled 18s ribosomal RNA probe. […] Given the known role of BMP-7 in kidney regeneration and the ability of an prostaglandin agonist to induce BMP-7 expression in 293S kidney cells in a time and receptor specific manner indicates a role for prostaglandin agonist in kidney regeneration.

[2] = test system: expression of Bone Morphogenetic Protein 7 (BMP-7) in 293S cells transfected with EP2; assay: Kidney regeneration assay: BMP-7 expression (Northern blot) in 293S cells transfected with EP2; format: cell-based, human; conditions: EP2 293S cells, 10^−6M, RNA extracted at 8, 16 and 24 hours
Experimental: as §1

Which results are given for `CCCCC[C@H](O)/C=C/[C@H]1[C@H](O)CC(=O)[C@@H]1C/C=C\CCCC(=O)O` [PGE2, Prostaglandin E2]?
induction of expression of BMP-7 [1]: generally not observed; induction of expression of BMP-7 [2]: induce the expression of BMP-7 in the EP2 293S cells in a time dependent manner
